Active and inactive are the calls of the source.

The target in data set [1] is T1, Fatty acid synthase (Homo sapiens, UniProt P49327). Briefly: FAS thioesterase domain inhibitors, dose response, biochemical, kinetic fluorescence intensity (AID 624326).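 Note: rate of fluorescence rise from hydrolysis of a fluorogenic O-methyl fluorescein ester substrate.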 Type of data set: functional.
Data set [2] has as its target T1, Fatty acid synthase. The experiment in a line: FAS thioesterase domain inhibitors, dose response, biochemical, endpoint fluorescence intensity, uHTS hits (AID 624327).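 Note: fluorescence from hydrolysis of an O-methyl fluorescein acyl ester substrate by the enzyme.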 Type of data set: functional.
For data set [3], the target named is T2, Tyrosine-protein phosphatase non-receptor type 5 (Homo sapiens, UniProt P54829).
T2 sequence (P54829 whole entry): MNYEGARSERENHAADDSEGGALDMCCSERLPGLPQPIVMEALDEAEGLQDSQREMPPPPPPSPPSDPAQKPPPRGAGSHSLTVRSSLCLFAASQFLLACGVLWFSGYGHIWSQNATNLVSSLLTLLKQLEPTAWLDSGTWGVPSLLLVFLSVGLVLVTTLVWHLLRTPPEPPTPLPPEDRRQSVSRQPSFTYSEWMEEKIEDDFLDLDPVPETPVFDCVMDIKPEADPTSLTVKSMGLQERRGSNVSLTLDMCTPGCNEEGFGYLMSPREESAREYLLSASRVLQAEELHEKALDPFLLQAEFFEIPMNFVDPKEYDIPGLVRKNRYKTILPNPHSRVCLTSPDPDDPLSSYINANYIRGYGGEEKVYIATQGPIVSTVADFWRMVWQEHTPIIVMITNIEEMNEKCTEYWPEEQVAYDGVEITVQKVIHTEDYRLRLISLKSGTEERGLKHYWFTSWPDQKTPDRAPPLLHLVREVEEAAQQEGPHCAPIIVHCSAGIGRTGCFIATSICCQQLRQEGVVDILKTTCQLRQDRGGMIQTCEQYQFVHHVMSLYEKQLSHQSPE
Briefly: STEP phosphatase inhibitors, confirmation, biochemical, fluorescence intensity, uHTS hits (AID 602372). Format: functional. Particulars: read-out: IC50_Mean.

The target of data set [4] is Dual specificity protein phosphatase 3 (Homo sapiens, UniProt P51452). Briefly: VHR phosphatase inhibition, dose response, selectivity assay for STEP inhibitor project, biochemical (AID 602374). Type of data set: functional. Conditions: read-out: IC50_Mean.
Data set [5] deals with T3, Tyrosine-protein phosphatase non-receptor type 11 (Homo sapiens, UniProt Q06124).
T3 sequence (Q06124 whole entry): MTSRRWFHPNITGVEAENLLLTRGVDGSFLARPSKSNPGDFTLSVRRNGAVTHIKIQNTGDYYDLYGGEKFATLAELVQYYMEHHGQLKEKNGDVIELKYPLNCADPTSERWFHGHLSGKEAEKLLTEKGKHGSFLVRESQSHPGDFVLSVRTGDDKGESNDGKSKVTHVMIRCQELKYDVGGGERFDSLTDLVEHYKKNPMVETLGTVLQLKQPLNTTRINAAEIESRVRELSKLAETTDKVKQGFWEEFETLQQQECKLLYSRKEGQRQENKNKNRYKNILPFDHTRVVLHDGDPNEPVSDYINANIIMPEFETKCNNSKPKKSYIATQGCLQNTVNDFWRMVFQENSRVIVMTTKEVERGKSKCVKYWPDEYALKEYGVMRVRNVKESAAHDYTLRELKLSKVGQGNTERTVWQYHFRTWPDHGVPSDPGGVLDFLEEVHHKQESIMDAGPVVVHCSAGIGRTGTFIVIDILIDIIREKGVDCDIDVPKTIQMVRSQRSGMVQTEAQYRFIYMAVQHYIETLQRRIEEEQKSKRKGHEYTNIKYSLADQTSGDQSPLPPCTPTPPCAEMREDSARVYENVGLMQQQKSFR
Briefly: SHP2 phosphatase inhibition, dose response, selectivity assay for STEP inhibitor project, biochemical (AID 602367). Type of data set: functional. Particulars: read-out: IC50_Mean.

Data set [6] deals with Cytochrome P450 2C9 (Homo sapiens, UniProt P11712).
The target of data set [7] is Cytochrome P450 2C19 (Homo sapiens, UniProt P33261). Briefly: Cytochrome panel assay with activity outcomes. Panel member name: p450-cyp2c19 Compounds with AC50 equal or less than 10 uM are considered active. Format: functional. Particulars: read-out: AC50.
The test system of data set [8] is Escherichia coli. Briefly: microbe, parasite or virus in culture.
Data set [9] concerns the target T4, Protein skinhead-1 (Caenorhabditis elegans, UniProt P34707).
T4 sequence (P34707 whole entry): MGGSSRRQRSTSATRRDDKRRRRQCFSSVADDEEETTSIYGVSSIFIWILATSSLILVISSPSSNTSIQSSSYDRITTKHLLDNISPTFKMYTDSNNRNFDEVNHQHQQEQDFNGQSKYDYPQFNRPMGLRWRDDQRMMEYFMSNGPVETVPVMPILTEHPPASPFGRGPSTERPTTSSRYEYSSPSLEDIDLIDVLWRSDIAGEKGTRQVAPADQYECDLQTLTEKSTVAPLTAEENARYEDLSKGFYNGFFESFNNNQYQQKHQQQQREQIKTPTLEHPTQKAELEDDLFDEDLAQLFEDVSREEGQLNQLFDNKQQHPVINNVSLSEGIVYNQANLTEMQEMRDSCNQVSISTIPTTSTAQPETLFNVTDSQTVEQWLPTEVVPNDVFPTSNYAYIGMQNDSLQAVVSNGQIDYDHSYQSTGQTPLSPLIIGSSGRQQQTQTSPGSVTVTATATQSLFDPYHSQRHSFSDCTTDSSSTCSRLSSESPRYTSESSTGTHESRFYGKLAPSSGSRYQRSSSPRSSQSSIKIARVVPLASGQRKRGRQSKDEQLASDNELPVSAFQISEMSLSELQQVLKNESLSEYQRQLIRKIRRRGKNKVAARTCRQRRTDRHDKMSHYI
Type of data set: functional.

For data set [10], the target named is T5, Sentrin-specific protease 8 (Homo sapiens, UniProt Q96LD8).
T5 sequence (Q96LD8 whole entry): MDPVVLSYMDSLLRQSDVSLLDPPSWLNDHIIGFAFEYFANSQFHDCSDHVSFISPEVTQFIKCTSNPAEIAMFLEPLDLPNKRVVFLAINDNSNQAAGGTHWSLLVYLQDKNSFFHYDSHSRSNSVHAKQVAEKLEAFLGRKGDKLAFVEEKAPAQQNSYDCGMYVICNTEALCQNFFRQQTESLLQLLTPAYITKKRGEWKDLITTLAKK
Type of data set: functional.

Data set [11] addresses T5, Sentrin-specific protease 8. Type of data set: functional. The source holds these as a separate data set.
For data set [12], the target named is Cytochrome P450 3A4 (Homo sapiens, UniProt P08684).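 Note: CYP3A4 tested as one member of a cytochrome P450 panel screen.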
Data set [13] concerns the target T6, Small ubiquitin-related modifier 1 (Homo sapiens, UniProt P63165). The experiment in a line: inhibitors of SUMO1 peptide binding, dose response, biochemical, fluorescence polarization, uHTS hits (AID 624382). Format: functional. Conditions: read-out: IC50_Mean.
The target of data set [14] is T6, Small ubiquitin-related modifier 1. The experiment in a line: inhibitors of SUMO1 partner interactions, dose response, biochemical, FRET (AID 624383). Format: functional. Particulars: read-out: IC50_Mean.
A short description of data set [15]: inhibitors of HIV Env-driven cell fusion, dose response, cherry-pick (AID 652057). Type of data set: functional, cell-based.
Data set [16] in a line: CEM21 lymphoblast cell cytotoxicity, dose response, cytotoxicity control for viral fusion inhibitor project, CellTiter-Glo luminescence, cherry-picked (AID 652042).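 Note: potency for signal decrease meaning cytotoxicity.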 Format: functional, cell-based.
The nature of data set [17]: inhibitors of clade B AD8 Env fusion, dose response, cell-based, cherry-pick (AID 652062).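 Note: luciferase signal from cell-cell fusion driven by HIV-1 clade B AD8 Env; potency is for inhibitors of fusion seen as a drop in luminescence.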 Type of data set: functional.
A short description of data set [18]: off-target signal loss in HeLa-CEM21 co-culture – HeLa F-luc CTL cells, cherry-picked, counter-screen for HIV-1 Env fusion inhibitor project, dose response (AID 652040).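 Note: potency for signal decrease marking cytotoxic or nonspecific inhibition.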 Type of data set: functional, cell-based.
The nature of data set [19]: ZM109 Env clade C HIV-1 fusion inhibitors, dose response, HeLa effector, CEM target cells, luciferase, cherry-pick (AID 652058). Format: functional, cell-based.
The subject of data set [20] is Escherichia coli. The experiment in a line: microbe, parasite or virus in culture. This is another data set of the same source.
Data set [21] is described as follows: HEp-2 cell cytotoxicity, dose response, cytotoxicity control for RSV inhibitor project, HTS (AID 2410). Format: functional. Particulars: human respiratory syncytial virus.
Data set [22] in a line: cells.
Data set [23] is described as follows: miR-122 activators in hepatoma reporter cells, dose response, cell-based, Huh7 psiCHECK-miR122, Renilla luciferase, cherry-picked (AID 651956).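 Note: huh7 hepatoma cells stably carrying a psiCHECK-2 miR-122 sensor plasmid; renilla luciferase signal reporting endogenous miR-122 activity after 48 h compound exposure.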 Format: functional.

T6 sequence (P63165 whole entry): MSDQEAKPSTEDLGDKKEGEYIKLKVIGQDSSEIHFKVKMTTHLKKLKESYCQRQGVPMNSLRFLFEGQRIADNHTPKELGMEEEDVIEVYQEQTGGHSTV
T1 sequence (P49327 whole entry, the tested form may be a part): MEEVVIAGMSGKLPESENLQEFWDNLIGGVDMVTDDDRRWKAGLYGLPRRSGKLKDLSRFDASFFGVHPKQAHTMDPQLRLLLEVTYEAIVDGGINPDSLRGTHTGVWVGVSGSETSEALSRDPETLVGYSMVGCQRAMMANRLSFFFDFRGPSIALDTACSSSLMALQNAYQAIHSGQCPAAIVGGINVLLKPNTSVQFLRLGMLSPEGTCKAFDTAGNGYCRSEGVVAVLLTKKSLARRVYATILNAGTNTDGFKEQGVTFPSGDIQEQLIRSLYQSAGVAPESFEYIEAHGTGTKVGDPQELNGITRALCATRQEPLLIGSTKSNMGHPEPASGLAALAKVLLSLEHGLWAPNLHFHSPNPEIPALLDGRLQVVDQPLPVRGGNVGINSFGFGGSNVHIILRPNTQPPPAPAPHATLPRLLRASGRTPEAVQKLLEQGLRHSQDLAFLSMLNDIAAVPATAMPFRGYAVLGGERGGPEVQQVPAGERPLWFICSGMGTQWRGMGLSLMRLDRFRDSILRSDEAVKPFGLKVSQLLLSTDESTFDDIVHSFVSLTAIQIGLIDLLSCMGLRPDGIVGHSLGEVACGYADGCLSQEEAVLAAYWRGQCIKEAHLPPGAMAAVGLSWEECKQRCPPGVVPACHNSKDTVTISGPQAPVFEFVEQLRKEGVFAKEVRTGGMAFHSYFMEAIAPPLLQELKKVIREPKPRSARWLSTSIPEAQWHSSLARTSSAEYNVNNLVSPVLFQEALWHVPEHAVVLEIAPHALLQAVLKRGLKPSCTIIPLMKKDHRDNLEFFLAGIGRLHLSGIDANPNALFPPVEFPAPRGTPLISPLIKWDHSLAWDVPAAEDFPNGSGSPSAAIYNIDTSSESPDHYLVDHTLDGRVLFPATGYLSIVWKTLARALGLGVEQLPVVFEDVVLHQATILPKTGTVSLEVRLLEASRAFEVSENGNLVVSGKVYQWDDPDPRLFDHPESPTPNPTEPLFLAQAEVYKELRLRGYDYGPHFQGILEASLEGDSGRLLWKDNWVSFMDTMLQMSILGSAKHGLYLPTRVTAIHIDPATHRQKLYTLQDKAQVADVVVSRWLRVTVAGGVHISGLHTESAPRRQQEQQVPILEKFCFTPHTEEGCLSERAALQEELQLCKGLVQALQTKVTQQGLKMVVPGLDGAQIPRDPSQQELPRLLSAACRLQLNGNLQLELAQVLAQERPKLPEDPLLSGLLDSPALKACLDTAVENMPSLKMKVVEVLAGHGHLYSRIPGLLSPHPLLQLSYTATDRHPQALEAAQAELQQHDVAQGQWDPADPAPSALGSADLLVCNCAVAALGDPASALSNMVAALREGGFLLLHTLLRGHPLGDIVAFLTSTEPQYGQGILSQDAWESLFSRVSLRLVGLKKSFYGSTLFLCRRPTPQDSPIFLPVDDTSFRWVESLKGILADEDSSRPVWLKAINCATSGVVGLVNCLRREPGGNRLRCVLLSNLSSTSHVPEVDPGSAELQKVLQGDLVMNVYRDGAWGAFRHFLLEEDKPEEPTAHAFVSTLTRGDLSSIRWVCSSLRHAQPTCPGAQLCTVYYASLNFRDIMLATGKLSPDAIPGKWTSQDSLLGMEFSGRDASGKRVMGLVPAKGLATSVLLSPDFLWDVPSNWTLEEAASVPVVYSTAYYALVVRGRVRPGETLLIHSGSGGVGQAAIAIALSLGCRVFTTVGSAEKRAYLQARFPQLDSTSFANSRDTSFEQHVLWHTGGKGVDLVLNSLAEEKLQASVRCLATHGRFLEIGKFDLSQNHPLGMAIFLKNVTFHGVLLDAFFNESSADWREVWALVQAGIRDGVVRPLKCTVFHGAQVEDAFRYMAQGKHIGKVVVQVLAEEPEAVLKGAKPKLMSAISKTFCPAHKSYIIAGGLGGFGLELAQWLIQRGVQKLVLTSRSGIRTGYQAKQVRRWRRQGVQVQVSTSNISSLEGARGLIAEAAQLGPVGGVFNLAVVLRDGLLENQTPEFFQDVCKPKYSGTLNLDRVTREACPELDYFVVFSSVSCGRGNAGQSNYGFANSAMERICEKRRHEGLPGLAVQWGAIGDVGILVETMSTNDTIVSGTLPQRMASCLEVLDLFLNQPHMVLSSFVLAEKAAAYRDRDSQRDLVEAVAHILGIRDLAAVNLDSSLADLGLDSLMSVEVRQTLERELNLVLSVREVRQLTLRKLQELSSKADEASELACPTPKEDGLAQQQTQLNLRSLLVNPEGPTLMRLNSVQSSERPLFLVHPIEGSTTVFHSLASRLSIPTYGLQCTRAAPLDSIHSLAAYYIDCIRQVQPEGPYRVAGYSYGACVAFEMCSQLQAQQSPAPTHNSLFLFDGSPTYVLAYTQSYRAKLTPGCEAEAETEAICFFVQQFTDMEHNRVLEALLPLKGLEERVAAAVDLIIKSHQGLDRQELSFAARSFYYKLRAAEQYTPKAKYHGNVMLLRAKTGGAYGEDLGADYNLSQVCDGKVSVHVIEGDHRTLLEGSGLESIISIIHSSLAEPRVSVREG
Dual specificity protein phosphatase 3, sequence (P51452 whole entry): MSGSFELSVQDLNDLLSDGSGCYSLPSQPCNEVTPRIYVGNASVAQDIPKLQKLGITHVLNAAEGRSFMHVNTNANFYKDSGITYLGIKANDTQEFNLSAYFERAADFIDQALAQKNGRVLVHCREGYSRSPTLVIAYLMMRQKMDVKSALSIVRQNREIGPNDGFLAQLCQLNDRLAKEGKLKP
Cytochrome P450 2C9, sequence (P11712 whole entry): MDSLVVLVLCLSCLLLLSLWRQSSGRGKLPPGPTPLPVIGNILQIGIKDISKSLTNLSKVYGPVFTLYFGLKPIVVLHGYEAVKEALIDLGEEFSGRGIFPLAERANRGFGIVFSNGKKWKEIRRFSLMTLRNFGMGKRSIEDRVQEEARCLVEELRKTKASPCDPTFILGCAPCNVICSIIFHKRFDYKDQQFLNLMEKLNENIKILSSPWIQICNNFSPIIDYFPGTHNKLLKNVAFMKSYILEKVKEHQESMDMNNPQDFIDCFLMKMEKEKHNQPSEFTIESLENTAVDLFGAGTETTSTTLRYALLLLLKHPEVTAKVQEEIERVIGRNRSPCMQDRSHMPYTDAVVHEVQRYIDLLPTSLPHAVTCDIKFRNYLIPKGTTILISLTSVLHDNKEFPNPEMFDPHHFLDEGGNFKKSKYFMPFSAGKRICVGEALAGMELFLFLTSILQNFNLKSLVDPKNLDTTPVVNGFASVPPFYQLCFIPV
Cytochrome P450 2C19, sequence (P33261 whole entry): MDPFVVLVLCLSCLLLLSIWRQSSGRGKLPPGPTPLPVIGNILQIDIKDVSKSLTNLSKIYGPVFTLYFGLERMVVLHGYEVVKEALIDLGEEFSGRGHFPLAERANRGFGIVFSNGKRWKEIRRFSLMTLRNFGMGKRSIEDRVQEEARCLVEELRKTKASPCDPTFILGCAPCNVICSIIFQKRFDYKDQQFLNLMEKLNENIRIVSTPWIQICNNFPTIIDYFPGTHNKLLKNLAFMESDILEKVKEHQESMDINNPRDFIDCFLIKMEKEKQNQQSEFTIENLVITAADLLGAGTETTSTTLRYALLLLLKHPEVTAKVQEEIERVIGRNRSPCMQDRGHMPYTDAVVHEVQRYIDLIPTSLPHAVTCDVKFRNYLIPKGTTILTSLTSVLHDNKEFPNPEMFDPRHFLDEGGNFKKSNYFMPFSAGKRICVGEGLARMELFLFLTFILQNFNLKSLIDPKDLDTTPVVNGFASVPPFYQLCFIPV
Cytochrome P450 3A4, sequence (P08684 whole entry): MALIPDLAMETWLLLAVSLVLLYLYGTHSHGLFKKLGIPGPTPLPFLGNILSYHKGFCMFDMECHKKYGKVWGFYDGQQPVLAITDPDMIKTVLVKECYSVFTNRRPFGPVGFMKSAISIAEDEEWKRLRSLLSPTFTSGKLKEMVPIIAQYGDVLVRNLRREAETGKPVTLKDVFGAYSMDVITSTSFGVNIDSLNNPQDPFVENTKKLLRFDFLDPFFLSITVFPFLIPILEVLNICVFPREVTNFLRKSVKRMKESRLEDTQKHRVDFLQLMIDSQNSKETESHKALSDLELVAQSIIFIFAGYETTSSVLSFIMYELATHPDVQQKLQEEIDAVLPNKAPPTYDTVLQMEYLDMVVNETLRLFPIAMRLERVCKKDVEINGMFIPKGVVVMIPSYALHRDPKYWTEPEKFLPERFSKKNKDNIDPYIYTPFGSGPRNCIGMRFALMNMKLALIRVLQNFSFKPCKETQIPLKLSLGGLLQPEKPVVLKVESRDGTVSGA

On to `COCCCNC(=O)CC1C[C@H](C(=O)N2CCOCC2)[C@@]2(CCC3CCCC3)c3[nH]c4ccc(OC)cc4c3CCN2C1=O` (stereo partly drawn), for which the IC50 in [1] was 7.56 µM (active); in data set [2], 11.5 µM (active).
Turning to `CCOc1ccc(C(=S)N2CCN(C)CC2)cc1`, the values for the IC50 in [3], in data set [4] and in [5] were 24.6 µM (inactive), 1.42 µM (active) and 3.9 µM (active), respectively.
Consider `CC(C)(C)c1nnc(NC(=O)NS(=O)(=O)c2ccccc2)s1`, for which the AC50 was 10 µM (inconclusive) in data set [6], 39.8 µM (inconclusive) in data set [7] and 61.5 µM (active) in data set [8].
In the case of `O=C(Nc1cc2nn(-c3ccccc3)nc2cc1Cl)c1ccco1`, the IC50 in data set [9] is > 100 µM (inactive).
With `CC(NC(=O)Nc1cccc([N+](=O)[O-])c1)c1ccc2c(c1)OCO2` (stereo not drawn), the IC50 is 1.64 µM (active) in data set [1] and 2.18 µM (active) in data set [2].
Regarding `O=C1Cc2ccccc2C(=O)N1OCc1ccc(Cl)cc1`, the IC50 in data set [10] was 11.8 µM (active); in data set [11], 11 µM (active).
Consider `CSc1ccc(NC(=O)NCCCN2CCN(c3ccccc3F)CC2)cc1`, for which the IC50 in data set [9] is > 100 µM (inactive). In addition, the AC50 entry in data set [12] is “inconclusive”.
Consider `CC(=O)N1CCC(N(CCN2CCOCC2)C(=S)Nc2ccc(C)cc2)CC1`, for which the IC50 in data set [3] was > 80 µM (inactive); in data set [4], 3.44 µM (active); in data set [5], 17.9 µM (active).
Regarding `CC(=O)c1c(C)[nH]c(C(=O)OCC(=O)c2ccc3c(c2)NC(=O)CO3)c1C`, the values for the IC50 in data set [13] and in data set [14] were > 66.6 µM (inactive) and 6.39 µM (active), respectively.
For `CCCCCNC(=O)C(c1ccncc1)n1c(=O)c(-c2cc3ccccc3[nH]2)nc2ccccc21` (stereo not drawn), the AC50 in data set [15] was 2.62 µM (active); in [16], 31.9 µM (active); in data set [17] it was 7.8 µM (active); in [18], 4 µM (active); in [19] it was 4.68 µM (active).
In the case of `Cc1n[nH]c(-c2cccnc2)c1N=NN(C)C`, the AC50 in data set [20] was 0.628 µM (active); in [8], 2.15 µM (active).
On to `C=CCOc1c(Br)cc(CNc2ccc(NC(=O)C(C)C)c(OC)c2)cc1OC`, for which the results for the AC50 in data set [6] and in [16] were 0.00562 µM (inconclusive) and 63.1 µM (active), respectively.
Consider `O=C(c1ccccc1)N1CCN(c2ccc([N+](=O)[O-])c(NCC3CCCO3)c2)CC1` (stereo not drawn), for which the AC50 is 105 µM (active) in [20] and 40.2 µM (active) in [8].
As for `Fc1ccccc1-c1nc(-c2ccncc2)no1`, the IC50 in [9] is 25.1 µM (active).
As to `CCCCCn1c(CN2CCN(c3cccc(Cl)c3)CC2)nc2c1c(=O)n(C)c(=O)n2C`, the IC50 in data set [1] was 4.64 µM (active); in [2] it was 3.96 µM (active).
On to `CCn1c2ccc(C)cc2c2nnc(NN)nc21`, for which the CC50 in [21] was 32.3 µM (active). The IC50 in [22] was 17.4 µM (active); in data set [10] it was > 100 µM (inactive); in data set [11], 8.84 µM (active).
Take `C[C@@H]1C=C[C@](Cc2ccccc2)(C(=O)NCC2CC2)N1C(=O)c1ccccc1`: in [9], the IC50 is > 100 µM (inactive).
`C/C=C/c1ccc([C@@H]2[C@@H](CO)N(C(C)=O)[C@@H]2CN(C)C(=O)c2ccccn2)cc1`: the AC50 in data set [23] was 39.6 µM (active).
Still for that read-out and setting: next, `CN1C(=O)c2cc(NC(=O)Nc3cccc(Cl)c3)ccc2OC[C@H]2O[C@@H](CC(=O)NCCc3ccncc3)CC[C@H]21`: 31.4 µM (active).
Consider `O=C(COc1cc([N+](=O)[O-])cc2cccnc12)NCCC1=CCCCC1`, for which the IC50 in [1] was 0.778 µM (active); in data set [2] it was 1.1 µM (active).
`O=C(NC1CC1)C1CCN(C2CCN(C(=O)Cc3ccc(F)cc3)CC2)CC1`: the AC50 is 26.8 µM (active) in [20] and 50 µM (active) in data set [8].
In the case of `CCC(C)N1CCC2(CC1)N=c1c3c(O)c4c(O)c(C)c5c(c4c1=N2)C(=O)[C@@](C)(OC=C[C@H](OC)[C@@H](C)[C@@H](OC(C)=O)[C@H](C)[C@H](O)[C@H](C)[C@@H](O)[C@@H](C)C=CC=C(C)C(=O)N3)O5` (stereo partly drawn), the AC50 in [8] was 7.88 µM (active).
Regarding `COc1ccc(-c2cc(=O)c3c(C)cc(O)cc3o2)cc1`, the IC50 is > 66.6 µM (inactive) in [13] and 8.68 µM (active) in [14].

Values taken from ChEMBL document CHEMBL1201862, “PubChem BioAssay data set” (2004).
